Assay results from paper PMC6568278 (Chemical Science, 2019).

Key:
Assay type in all cases: cell-based
NF-κB = conditions: HEK-293/NF-κB-luc cells
rat aortic VSMCs = test: PDGF-induced VSMC proliferation; conditions: PDGF-activated rat aortic VSMCs
human umbilical vein ECs = test: Endothelial cell; conditions: 30 μM

Row | Compound | NF-κB inhibition (in words) (NF-κB) | VSMC proliferation inhibition (in words) (rat aortic VSMCs) | EC proliferation inhibition (in words) (human umbilical vein ECs)
1 | COc1ccc(C[C@H]2CO[C@H](c3ccc(OC)c(OC)c3)[C@H]2COC(=O)C=C(C)C)cc1OC [1b, ((2S,3R,4R)-4-(3,4-Dimethoxybenzyl)-2-(3,4-dimethoxyphenyl)tetrahydrofuran-3-yl)methyl 3-methylbut-2-enoate] | much more suppressive effect | remained unaffected | 
2 | COc1ccc(C[C@H]2CO[C@H](c3ccc(OC)c(OC)c3)[C@H]2COC(=O)CC(C)C)cc1OC [1c] | similarly strong inhibition to 1b | no effect | 
3 | C/C=C(/C)C(=O)OC[C@H]1[C@@H](Cc2ccc(C(F)(F)F)cc2)CO[C@@H]1c1ccc(F)cc1 [1j, (Z)-((2S,3R,4R)-2-(4-Fluorophenyl)-4-(4-(trifluoromethyl)benzyl)tetrahydrofuran-3-yl)methyl 2-methylbut-2-enoate] | no inhibition |  | no inhibition
4 | COc1ccc([C@H]2OC[C@H](Cc3ccc(C(C)(C)C)cc3)[C@@H]2CO)cc1OC [7b, ((2S,3R,4R)-4-(4-(tert-Butyl)benzyl)-2-(3,4-dimethoxyphenyl)tetrahydrofuran-3-yl)methanol] | inactive | much more active | 
